Experimental findings from patent US9125415B2, “Thiophene based oligomers as light activated biocides” (STC, UNM, priority 2011, dated 2015) are described below.

The nature of data set [1]: UV-Visible absorption spectra. Conditions: for λmax (absorption): MeOH; for λmax (Absorption/nm): Water. The format is physicochemical. On the procedure: (§1) NMR spectra were recorded using a Varian VXR-300 FT-NMR, operating at 300 MHz for ^1H NMR and at 75.4 MHz for ^13C NMR. UV-Visible spectra were recorded using a Varian Cary 100 dual beam spectrophotometer. Corrected steady-state fluorescence spectra were obtained with a PTI spectrometer. A 1 cm square quartz cuvette was used for solution spectra, and emission was collected at 90° relative to excitation beam. Fluorescence quantum yields are reported relative to known standards. The optical density of solutions at the excitation wavelength was ≦0.1, and corrections were applied for differences in the refractive index of standard and sample solutions. Transient absorption spectra were collected using a laser systems that is described elsewhere.^17,18 The optical density of the solutions was adjusted to ˜0.7 at the excitation wavelength (355 nm) with the laser energy set at 6-7 mJ. Solutions were purged with argon for 45 min before making transient absorption spectroscopy measurements. Singlet oxygen quantum yields were measured using a Photon Technology International Quantamaster near-IR spectrophotometer equipped with an InGaAs photodiode detector, optical chopper and a lock in amplifier.

Data set [2] in a line: Steady-state fluorescence spectra and fluorescence quantum yields relative to known standards. The format is physicochemical. On the procedure: as §1
The next data set in a line: Fluorescence lifetime. Conditions: component amplitude in brackets. The class given is physicochemical.
Data set [3] can be described thus: Transient absorption spectroscopy (triplet excited state). The format is physicochemical. To be noted: for TTAbs (ΔA, t = 0): methanol, Abs=0.7 at λex, λex=355 nm for 4a and 4b, 425 nm for 4c, immediately following the laser pulse. On the procedure:
Transient absorption experiments were carried out both in methanol and in water (excitation at 355 nm, 5 ns pulse, […] fluence). […] The important photophysical data obtained in methanol solution are consolidated in Table 1 (see supporting information for data in aqueous solution). FIGS. 5 and 6 compare transient absorption difference spectra obtained immediately following the laser pulse in methanol. […] Pulse energy and ground state absorption matched. […] The response curves from each of the repetitive time increments is indicated by sequential numbers 1-8 in both FIGS. 6A and 6B. Samples were purged with argon for 45 min before the measurements. A higher life time is observed for the triplet excited state in water than in methanol.
as §1

Data set [4] in a line: Singlet oxygen quantum yield (sensitization, emission at 1260 nm). The format is physicochemical. Conditions: CD3OD; 2′-acetonaphthone (ΦΔ = 0.79) as actinometer.
Source text: The important and necessary feature of the biocidal agents triggered by light is their ability to sensitize the formation of singlet oxygen. Having established the formation of triplet state by direct excitation of the oligomers 4a and 4b (but not 4c), we determined their ability to sensitize singlet oxygen in deuterated methanol (ΦΔ, Table 1). […] From the above results it is evident that the oligomer with terthiophene back bone is the most efficient sensitizer for singlet oxygen.
as §1

For data set [5], the system named is Staphylococcus aureus (ATCC 10832). Briefly: Antibacterial studies, dead/live assay by flow cytometry (SYTO21 / propidium iodide). To be noted: for dark antibacterial activity / dark toxicity (in words) / light-dependent toxicity versus the bacterial cells (in words) / percentage of killed S. aureus cells: 1 μg/mL oligomer; for dark antibacterial activity / dark toxicity (in words) / light-dependent toxicity versus the bacterial cells (in words): up to 90 min. The class given is cell-based. The text has this:
There has been an increasing interest in the prevention of staphylococcal infections because of the increasing number of infections caused by methicillin-resistant S. aureus (MRSA), which is the most common cause of hospital-acquired infections. Our previous studies with oligo (phenylene ethynylene) type oligomers have clearly established that these oligomers are effective against variety of bacteria in the presence of light. […] As our objective is to develop visible light activated biocidal oligomers, we investigated the antibacterial activity of compounds 4a-c and against Staphylococcus aureus (S. aureus). After oligomer solutions were incubated with S. aureus under visible light illumination or in the dark, the antibacterial effect of the three oligomers was evaluated at time 0, 15, 30, 45, 60, and 90 min by flow cytometry analysis after staining the bacterial suspensions with live/dead fluorescent dyes (SYTO21, green fluorescence=live, and propidium iodide, red fluorescence=dead). FIGS. 7 and 8 show plots of the percentage of dead bacteria cells versus light exposure time of the thiophene-based oligomeric series at […]. […] The antibacterial efficiency of three oligomers increases with increasing irradiation time. In the control sample where oligomers were not added to the bacterial suspension most cells (>90% as shown in flow cytometry data) were viable and appear green fluorescence. Dark antibacterial activity was not observed from 4a and 4b; however, 4c kills ˜27% of bacteria after 90 min of incubation of bacteria with 4c.
Staphylococcus aureus (ATCC 10832, American Type Culture Collection) was grown in Brain Heart Infusion (BHI, Difco) and stored at […] with 20% (v/v) glycerol (EMD) before use. Stock cultures maintained on agar plates (2%, Difco) were used to inoculate 50 mL cultures in liquid BHI. The cultures were incubated at 37° C. for 18 hours. The bacteria were then centrifuged and washed twice with 0.85% NaCl followed by counting in a hemocytometer to normalize bacterial concentration in 20 mL of 0.85% NaCl (8×10^6 cells/mL) for antibacterial tests. Control samples containing only bacterial cells, and desired concentrations of oligomer/bacteria mixture samples were exposed to the visible light for 15, 30, 45, 60 and 90 min in a LuzChem ORG photoreactor using Sylvania T5 bulbs (λ=350-799 nm). Another set of samples were incubated in the dark for 15, 30, 45, 60 and 90 min. Then dead/live assays were conducted using SYTO21 (green fluorescence=live) and propidium iodide (red fluorescence=dead) purchased from Invitrogen. After bacteria were incubated with the oligomers in the light and dark conditions, a 1:1 ratio of dyes (2.4 μL) were added to the samples and kept in the dark for 15 min. Finally, the bacteria were examined using an Accuri C6 flow cytometer where 2×10^4 cells were analyzed from 8×10^6 cell solution. The number of live cells and dead cells corresponding to green and red fluorescence respectively were counted and compared by flow cytometry. Results are shown graphically in FIGS. 7 and 8.

For data set [6] the test system is unchanged. The description is as above. The format is cell-based. To be noted: visible light substituted with UV light.
Setting [7] is: MeOH, quinine sulfate in 0.1M sulfuric acid (ΦF = 0.54) as actinometer.
[8] abbreviates: Water, quinine sulfate in 0.1M sulfuric acid (ΦF = 0.54) as actinometer.
Setting [9] is: visible light, 90 min of irradiation.

Each structure is given as a SMILES string. Marks after values point to notes of the source that are not given here.

Take `C[N+](C)(C)CCCc1ccc(-c2ccc(-c3ccc(CCC[N+](C)(C)C)s3)s2)s1.[Cl-].[Cl-]` [4a]: in data set [1], the “λmax (absorption)” value is on record as 364 nm and the “λmax (Absorption/nm)” value was found to be 368 nm. The “shift of absorption in water compared to methanol” value in data set [1] (red shift for 4a, blue shift for 4b and 4c) was approximately 4 nm. The “λmax (fluorescence)” value in data set [2] (MeOH) came out at 437 nm. The “ΦF (fluorescence quantum yield)” value in data set [2] (setting [7]) came out at 0.06 ± 0.02. Also, the “λmax (Fluorescence/nm)” value in data set [2] (Water) was 437 nm. For the same compound, in data set [2] (setting [8]), the “ΦF (fluorescence quantum yield)” value stood at 0.058 ± 0.02. In “Fluorescence lifetime” (MeOH, 4a at 450 nm), the “τF/ns (MeOH)” value came to 0.18 ns. In addition, in the data set “Fluorescence lifetime” (Water, 4a 450 nm, 4b 500 nm, 4c 600 nm), the “τF/ns (Water)” value was 0.19 ns. In data set [3], the “TTAbs (λ/nm)/MeOH” value is recorded as 467 nm and the “TTAbs (ΔA, t = 0)” value was determined as 0.55. Further, in data set [3] (Water), the “TTAbs (ΔA, t = 0) in Water” value is given as 0.43; the “TTAbs (λ/nm) in Water” value is listed as 467 nm; the “τtriplet (μs) in Water” value worked out at 17.9 μs. Besides, the “ΦΔ (singlet oxygen quantum yield)” value in data set [4] was 0.74 ± 0.02. The “dark antibacterial activity / dark toxicity (in words)” value in data set [5] (dark) is “not observed”. The “biocidal activity at higher concentrations (in words)” value in data set [5] (in the presence of light, 5 and 10 μg/mL) is reported as “virtually eliminates the bacterial population within a few minutes”. Also, the “concentration at which the compound is an effective biocide” value in data set [5] (in the presence of light, within 30 minutes) is not below 1 µg/mL. In addition, in data set [5] (visible light), the “light-dependent toxicity versus the bacterial cells (in words)” value was “marked light-dependent toxicity”. For the same compound, the “percentage of killed S. aureus cells” value in data set [5] (setting [9]) is reported as approximately 93%. Further, the “light activated antibacterial activity under UV light (in words)” value in data set [6] was “the most efficient compound in killing bacteria in the presence of light”.
Consider `Cn1nc2c(-c3ccc(CCC[N+](C)(C)C)s3)ccc(-c3ccc(CCC[N+](C)(C)C)s3)c2n1.[Cl-].[Cl-]` [4b], for which, in data set [1], the “λmax (absorption)” value is recorded as 390 nm and the “λmax (Absorption/nm)” value was found to be 385 nm. For the same compound, the “λmax (fluorescence)” value in data set [2] (MeOH) is recorded as 460 nm. Besides, the “ΦF (fluorescence quantum yield)” value in data set [2] (setting [7]) is 0.51 ± 0.02. The “λmax (Fluorescence/nm)” value in data set [2] (Water) is listed as 460 nm. In data set [2] (setting [8]), the “ΦF (fluorescence quantum yield)” value was 0.340 ± 0.02. For the same compound, in data set [3], the “TTAbs (λ/nm)/MeOH” value worked out at 492 nm and the “TTAbs (ΔA, t = 0)” value is given as 0.39. Further, the “TTAbs (λ/nm) in Water” value in data set [3] (Water) turned out to be 492 nm. For the same compound, the “ΦΔ (singlet oxygen quantum yield)” value in data set [4] is 0.49 ± 0.03. Further, the “dark antibacterial activity / dark toxicity (in words)” value in data set [5] (dark) is reported as “not observed”. In data set [5] (visible light), the “light-dependent toxicity versus the bacterial cells (in words)” value is “marked light-dependent toxicity”. Besides, in data set [5] (setting [9]), the “percentage of killed S. aureus cells” value was “about 35%”.
As to `C[N+](C)(C)CCCc1ccc(-c2ccc(-c3ccc(CCC[N+](C)(C)C)s3)c3nsnc23)s1.[Cl-].[Cl-]` [4c], the “λmax (Absorption/nm)” value in data set [1] was found to be 454 nm. In addition, the “λmax (fluorescence)” value in data set [2] (MeOH) was 615 nm. The “ΦF (fluorescence quantum yield)” value in data set [2] (MeOH, fluorescein in 0.1M NaOH (ΦF = 0.92) as actinometer) was 0.23 ± 0.02^b. In addition, the “λmax (Fluorescence/nm)” value in data set [2] (Water) was 610 nm. Also, the “TTAbs (λ/nm)/MeOH” value in data set [3] is 529 nm. The “TTAbs (λ/nm) in Water” value in data set [3] (Water) stood at 529 nm. For the same compound, the “ΦΔ (singlet oxygen quantum yield)” value in data set [4] is listed as “no singlet oxygen emission was detected”. The “dark antibacterial activity / dark toxicity (in words)” value in data set [5] (dark) is “significant dark toxicity”. Also, the “percentage of killed S. aureus cells” value in data set [5] (dark, 90 min of incubation) was approximately 27%; in data set [5] (setting [9]), “about 35%”. For the same compound, the “light-dependent toxicity versus the bacterial cells (in words)” value in data set [5] (visible light) is recorded as “marked light-dependent toxicity”.
